# According to patent US20080027125A1 (priority 2006, published 2008):
# Tests used:
# [1] = Form A compared with the amorphous form; Form B as stated; cited from earlier work
# [2] = Heating of Fluvastatin Sodium Form CVI in oven, analysed by XRD and KF; type: physicochemical
# Method: (§1) In the following examples, the forms of Fluvastatin Sodium were identified using a Scintag X-ray powder diffractometer model X'TRA with a solid state detector. Copper radiation of 1.5418 Å was used. The sample holder was a round standard aluminum sample holder with rough zero background. The scanning parameters were range: 2-40 degrees two-theta; scan mode: continuous scan; step size: 0.05 deg.; and a rate of 5 deg/min. The water content of the samples was determined by the method known as Karl Fisher (KF).
# [3] = Storing at room temperature under 0-60% RH for 10 days, analysed by XRD and KF; type: physicochemical; conditions: for form found by XRD at the end of the storage time / water content after storage: room temperature
# Method: Copper radiation of 1.5418 Å was used. The sample holder was a round standard aluminum sample holder with rough zero background. The scanning parameters were range: 2-40 degrees two-theta; scan mode: continuous scan; step size: 0.05 deg.; and a rate of 5 deg/min. The water content of the samples was determined by the method known as Karl Fisher (KF). […] Before and after the storage time the sample was analyzed by XRD. […] Before and after the storage time the sample was analyzed by XRD and KF.
# [4] = Storing at room temperature under 100% RH for 10 days, analysed by XRD; type: physicochemical
# Method: as §1, with “(KF). […] The samples stored under 100% RH had about 25% water content.” for “(KF).”
# [5] = 0% RH, listed as fluvastatin Sodium Form CVI
compound,measurement,setting,value
"CC(C)n1c(/C=C/C(O)C[C@@H](O)CC(=O)O)c(-c2ccc(F)cc2)c2ccccc21 (stereo partly drawn) [Form A, fluvastatin sodium]",hygroscopicity,[1],less hygroscopic
"CC(C)n1c(/C=C/C(O)C[C@@H](O)CC(=O)O)c(-c2ccc(F)cc2)c2ccccc21 (stereo partly drawn) [Form CVI, fluvastatin sodium]",water content (KF) after heating,"[2]; 80 C, 1 hour",about 2%
same,water content (KF) after heating,"[2]; 80 C, 1 hour, listed as Fluvastatin Na Form CVI",2%
same,conversion into fluvastatin sodium Form LXVI,[2]; heating to about 80° C. for about 1 hour,≤ 10%
same,form found by XRD after heating,"[2]; oven, 80 C, 1 hour",Fluvastatin Sodium Form CVI
same,form found by XRD at the end of the storage time,[3]; [5],Fluvastatin Sodium Form CVI
same,water content after storage,[3]; [5],3%
same,form found by XRD at the end of the storage time,"[3]; 60% RH, listed as fluvastatin Sodium Form CVI",Fluvastatin Sodium Form CVI
same,conversion into fluvastatin sodium Form LXVI,[3]; relative humidity about 0% to about 60%,≤ 10%
"CC(C)n1c(/C=C/C(O)C[C@@H](O)CC(=O)O)c(-c2ccc(F)cc2)c2ccccc21 (stereo partly drawn) [amorphous fluvastatin sodium, fluvastatin sodium]",form found by XRD at the end of the storage time,[3]; 0% RH,amorphous Fluvastatin Sodium
same,water content after storage,[3]; 0% RH,4%
same,form found by XRD at the end of the storage time,[3]; 60% RH,amorphous Fluvastatin Sodium
same,water content after storage,[4],about 25%
same,form found by XRD after storage,[4]; room temperature,Fluvastatin Na Form LXVI
"CC(C)n1c(/C=C/C(O)C[C@@H](O)CC(=O)O)c(-c2ccc(F)cc2)c2ccccc21 (stereo partly drawn) [form B, fluvastatin sodium]",hygroscopicity,[1],low hygroscopicity
